Experimental data from US7446199B2, “Compositions useful as inhibitors of protein kinases” (Vertex Pharmaceuticals Incorporated, priority 2003, dated 2008).

Tests used:
[1] = molecular target: T1, JAK3 (Homo sapiens, UniProt P52333); experiment: JAK3 inhibition assay (ELISA, Poly (Glu, Ala, Tyr) coated plates); assay type: biochemical; conditions: 2 mM ATP, 60 minutes at 30° C.
T1 sequence (P52333 1-1124): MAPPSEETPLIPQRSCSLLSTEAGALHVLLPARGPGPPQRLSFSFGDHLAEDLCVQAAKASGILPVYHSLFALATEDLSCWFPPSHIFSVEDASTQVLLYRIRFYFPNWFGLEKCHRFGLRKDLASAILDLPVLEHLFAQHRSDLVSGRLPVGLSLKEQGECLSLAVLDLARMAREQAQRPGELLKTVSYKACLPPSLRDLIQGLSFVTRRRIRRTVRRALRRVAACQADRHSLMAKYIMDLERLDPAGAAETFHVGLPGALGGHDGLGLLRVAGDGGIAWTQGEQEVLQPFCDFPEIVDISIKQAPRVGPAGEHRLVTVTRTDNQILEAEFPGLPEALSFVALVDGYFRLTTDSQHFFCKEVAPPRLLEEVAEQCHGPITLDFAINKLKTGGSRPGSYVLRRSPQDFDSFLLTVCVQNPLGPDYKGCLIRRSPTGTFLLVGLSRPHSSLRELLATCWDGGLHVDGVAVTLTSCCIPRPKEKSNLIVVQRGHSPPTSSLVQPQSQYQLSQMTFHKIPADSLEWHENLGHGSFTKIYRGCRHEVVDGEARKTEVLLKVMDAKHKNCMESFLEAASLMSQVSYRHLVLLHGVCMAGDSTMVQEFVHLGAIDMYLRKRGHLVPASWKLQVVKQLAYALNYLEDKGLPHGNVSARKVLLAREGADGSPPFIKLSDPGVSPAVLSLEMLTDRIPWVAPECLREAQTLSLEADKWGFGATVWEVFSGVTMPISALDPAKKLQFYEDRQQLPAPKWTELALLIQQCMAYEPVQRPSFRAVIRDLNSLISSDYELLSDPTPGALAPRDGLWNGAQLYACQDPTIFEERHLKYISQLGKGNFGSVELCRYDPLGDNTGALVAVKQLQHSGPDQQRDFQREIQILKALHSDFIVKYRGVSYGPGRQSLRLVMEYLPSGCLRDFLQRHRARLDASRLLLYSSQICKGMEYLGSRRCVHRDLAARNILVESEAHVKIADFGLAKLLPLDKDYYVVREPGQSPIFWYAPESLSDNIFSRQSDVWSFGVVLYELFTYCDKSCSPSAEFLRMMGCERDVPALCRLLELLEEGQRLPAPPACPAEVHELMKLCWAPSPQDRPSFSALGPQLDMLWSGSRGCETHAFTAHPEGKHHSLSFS
In short: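 ELISA on Poly(Glu,Ala,Tyr) 6:3:1-coated plates with 2 mM ATP and 5 mM MgCl2. JAK enzyme started the reaction, run 60 min at 30° C. Phosphotyrosine was detected with HRP-conjugated 4G10 antibody and TMB, read at 450 nm, and IC50 was derived from optical densities.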

[2] = molecular target: T2, Aurora-2 (Homo sapiens, UniProt O14965); experiment: Inhibition of AUR-2, coupled enzyme assay; assay type: biochemical; conditions: 70 nM Aurora-2, 800 μM peptide LRRASLG, 30° C.
T2 construct: addition of 10 μL of Aurora-2 stock solution to give a final concentration of 70 nM
T2 sequence (O14965 1-403): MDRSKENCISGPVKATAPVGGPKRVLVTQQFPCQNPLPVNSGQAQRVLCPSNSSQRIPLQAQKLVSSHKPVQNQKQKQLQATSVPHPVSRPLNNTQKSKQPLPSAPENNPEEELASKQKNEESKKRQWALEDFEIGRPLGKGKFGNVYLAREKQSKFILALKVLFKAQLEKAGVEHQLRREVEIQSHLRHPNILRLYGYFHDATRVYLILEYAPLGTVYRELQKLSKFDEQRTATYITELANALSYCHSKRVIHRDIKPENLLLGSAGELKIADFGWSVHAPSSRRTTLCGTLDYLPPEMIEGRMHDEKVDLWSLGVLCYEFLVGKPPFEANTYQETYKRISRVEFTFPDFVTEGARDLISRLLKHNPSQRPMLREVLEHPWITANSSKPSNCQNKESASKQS
Experimental: Compounds are screened in the following manner for their ability to inhibit Aurora-2 using a standard coupled enzyme assay (Fox et al. (1998) Protein Sci 7, 2249). To an assay stock buffer solution containing 0.1M HEPES 7.5, 10 mM MgCl2, 1 mM DTT, 25 mM NaCl, 2.5 mM phosphoenolpyruvate, […], […], […], and 800 μM peptide (LRRASLG, American Peptide, Sunnyvale, Calif.) is added a DMSO solution of a compound of the present invention to a final concentration of 30 μM. The resulting mixture is incubated at 30° C. for 10 min. The reaction was initiated by the addition of 10 μL of Aurora-2 stock solution to give a final concentration of 70 nM in the assay. The rates of reaction are obtained by monitoring absorbance at 340 nm over a 5 minute read time at 30° C. using a BioRad Ultramark plate reader (Hercules, Calif.). The Ki values are determined from the rate data as a function of inhibitor concentration.

Ki [1] | Ki [2] | Structure (SMILES)
< 0.2 µM | < 0.2 µM | CC(=O)Nc1cccc(-c2cnc3[nH]cc(-c4oncc4-c4cccc(F)c4F)c3c2)c1 [Compound 65, N-(3-{3-[4-(2,3-Difluoro-phenyl)-isoxazol-5-yl]-1H-pyrrolo[2,3-b]pyridin-5-yl}-phenyl)-acetamide]
< 0.2 µM | < 0.2 µM | Nc1cccc(-c2cnc3[nH]cc(-c4oncc4-c4cccc(F)c4F)c3c2)c1 [Compound 86, 3-{3-[4-(2,3-Difluoro-phenyl)-isoxazol-5-yl]-1H-pyrrolo [2,3-b]pyridin-5-yl}-phenylamine]
< 0.2 µM | 0.2 to 1 µM | Fc1cccc(-c2cnoc2-c2c[nH]c3ncc(-c4ccccc4)cc23)c1F [Compound 58, 3-[4-(2,3-Difluoro-phenyl)-isoxazol-5-yl]-5-phenyl-1H-pyrrolo[2,3-b]pyridine]
< 0.2 µM | 0.2 to 1 µM | CN(C)Cc1ccc(-c2cnc3[nH]cc(-c4oncc4-c4cccc(F)c4F)c3c2)cc1 [Compound 91, (4-{3-[4-(2,3-Difluoro-phenyl)-isoxazol-5-yl]-1H-pyrrolo[2,3-b]pyridin-5-yl}-benzyl)-dimethyl-amine]
< 0.2 µM | 0.2 to 1 µM | Nc1ccnc(-c2cnc3[nH]cc(-c4oncc4-c4cccc(F)c4F)c3c2)c1 [Compound 83, 2-{3-[4-(2,3-Difluoro-phenyl)-isoxazol-5-yl]-1H-pyrrolo [2,3-b]pyridin-5-yl}-pyridin-4-ylamine]
< 0.2 µM | < 0.2 µM | Nc1ccc(-c2cnc3[nH]cc(-c4oncc4-c4cccc(F)c4F)c3c2)cc1 [Compound 90, 4-{3-[4-(2,3-Difluoro-phenyl)-isoxazol-5-yl]-1H-pyrrolo [2,3-b]pyridin-5-yl}-phenylamine]
< 0.2 µM | 0.2 to 1 µM | Oc1cnc2[nH]cc(-c3oncc3-c3cccc(F)c3F)c2c1 [Compound 43, 3-[4-(2,3-Difluoro-phenyl)-isoxazol-5-yl]-1H-pyrrolo[2,3-b]pyridin-5-ol]
< 0.2 µM | < 0.2 µM | Oc1cccc(-c2cnc3[nH]cc(-c4oncc4-c4cccc(F)c4F)c3c2)c1 [Compound 87, 3-{3-[4-(2,3-Difluoro-phenyl)-isoxazol-5-yl]-1H-pyrrolo [2,3-b]pyridin-5-yl}-phenol]
< 0.2 µM | < 0.2 µM | COc1cnc2[nH]cc(-c3oncc3-c3cccc(Cl)c3Cl)c2c1 [Compound 49, 3-[4-(2,3-Dichloro-phenyl)-isoxazol-5-yl]-5-methoxy-1H-pyrrolo[2,3-b]pyridine]
< 0.2 µM | 0.2 to 1 µM | Oc1cnc2[nH]cc(-c3oncc3-c3cccc(Cl)c3Cl)c2c1 [Compound 48, 3-[4-(2,3-Dichloro-phenyl)-isoxazol-5-yl]-1H-pyrrolo[2,3-b]pyridin-5-ol]
< 0.2 µM | < 0.2 µM | Clc1cccc(-c2cnoc2-c2c[nH]c3ncc(-c4cccnc4)cc23)c1Cl [Compound 99, 3-[4-(2,3-Dichloro-phenyl)-isoxazol-5-yl]-5-pyridin-3-yl-1H-pyrrolo[2,3-b]pyridine]
0.2 to 1 µM | 0.2 to 1 µM | Cc1noc(-c2c[nH]c3ncccc23)c1-c1cccc(F)c1F [Compound 134, 3-[4-(2,3-Difluoro-phenyl)-3-methyl-isoxazol-5-yl]-1H-pyrrolo[2,3-b]pyridine]
